This is an account of results in paper PMC9963937, “Synergistic Combination of Irinotecan and Rapamycin Orally Delivered by Nanoemulsion for Enhancing Therapeutic Efficacy of Pancreatic Cancer” (Pharmaceutics, 2023).

Data set [1] is described as follows: In vitro release from LBSNENP, USP Apparatus 2 dissolution. Type of data set: physicochemical. To be noted: endpoint (60 min). As to the method: The contents of irinotecan and rapamycin in LBSNENPir and LBSNENPra were detected through HPLC. To determine the irinotecan content, we used the Waters 600E HPLC system with the SunFire C18 column (4.6 mm × 250 mm I.D., 5 μm; Waters). The mobile phase consisted of 10 mM phosphate buffer (pH 3.0)/acetonitrile/tetrahydrofuran (65/35/2 v/v), the flow rate was 0.8 mL/min, the column was maintained at 40 °C, the injection volume was 20 µL, and the fluorescence detector was set at the excitation and emission wavelengths of 370 and 470 nm, respectively. To determine the rapamycin content, we used the JASCO HPLC system with the Inersil ODS-2 C18 column (4.0 mm × 150 mm I.D., 5 μm). The mobile phase was a mixture of acetonitrile and water (20/80 v/v), the flow rate was 1.0 mL/min, the column was maintained at 55 °C, the injection volume was 100 µL, and the UV detector was set at the wavelength of 278 nm. Each data point came from the mean of at least three individual trials. The assay method was also well validated before. […]
The in vitro release of irinotecan and rapamycin from LBSNENP was examined using the dissolution method on United States Pharmacopeia (USP) Apparatus 2 (VK7000, Vankel, UK). […] The contents of irinotecan and rapamycin were determined through HPLC as described in the earlier text. […]

Data set [2] relates to MIA PaCa-2 pancreatic cancer cell line. The experiment in a line: MTT cell viability assay. Type of data set: cell-based. Particulars: Homo sapiens, read-out: IC50 against MIA PaCa-2 cells. On the procedure:
To evaluate the cytotoxicity and combination effects of rapamycin and silymarin as well as free irinotecan, we performed the 3-(4,5-dimethylthiazol-2-yl)-2,5-diphenyl-2H-tetrazolium bromide (MTT) assay by using the MIA PaCa-2 pancreatic cancer cell line. Briefly, the cells were seeded in a 96-well plate at a density of 3 × 10^4 cells/well and incubated at 37 °C with 5% CO2 for 24 h. After 24 h, the cells were treated with different concentrations of free irinotecan (0–300 µM), rapamycin (0–300 µM), SN38 (0–300 nM), and silymarin (0–1000 µM). To determine the combination effect, the cells were treated with different ratios of irinotecan/rapamycin and SN38/rapamycin (1/0.3, 1/0.5, 1/1, and 1/2) and irinotecan/silymarin and SN38/silymarin (1/1 and 1/2). All the cells were incubated with the drugs for 24–48 h. Then, the MTT reagent and dimethyl sulfoxide were added for the formation and the dissolution of purple formazan crystals. The absorbance of each well was measured at 550 nm on a Cytation 3 cell imaging multimode reader (BioTek, Winooski, VT, USA). The half-maximal inhibitory concentration (IC50) and combination index (CI) of the drugs were calculated using CompuSyn Sofware (Paramus, NJ, USA) through the Chou–Talalay method. In the Chou–Talalay method, the CI values of <0.9, >1.1, and 0.9–1.1 indicated synergistic, antagonistic, and additive effects, respectively. Each data point was the mean of at least six individual experiments.
Background: Tetrazolium assays rely on reduction of a dye to a coloured formazan, in cell work by metabolically active cells.

Where two headings read alike, the source gives them in different places.

As to `CCc1c2c(nc3ccc(OC(=O)N4CCC(N5CCCCC5)CC4)cc13)-c1cc3c(c(=O)n1C2)COC(=O)[C@]3(O)CC` [irinotecan, Irinotecan], in data set [1] (buffer pH 1.2, 37 °C, 50 rpm), the “dissolution percentage of raw irinotecan powder at the endpoint” value is “approximately 63%”. Moreover, the half-inhibitory concentration (IC50) in data set [2] (MIA PaCa-2, 24 h) was 4.78 ± 9.42 µM; in data set [2] (MIA PaCa-2, 48 h), 12.2 ± 4.56 µM.

Consider `CO[C@H]1C[C@@H]2CC[C@@H](C)[C@@](O)(O2)C(=O)C(=O)N2CCCC[C@H]2C(=O)O[C@H]([C@H](C)C[C@@H]2CC[C@@H](O)[C@H](OC)C2)CC(=O)[C@H](C)/C=C(\C)[C@@H](O)[C@@H](OC)C(=O)[C@H](C)C[C@H](C)/C=C/C=C/C=C/1C` [rapamycin, Rapamycin], for which the “dissolution percentage of raw rapamycin powder at the endpoint” value in data set [1] (0.4% sodium lauryl sulfate solution, 37 °C, 100 rpm) is given as about 32%. For the same compound, the IC50 in data set [2] (MIA PaCa-2, 24 h) is 2.98 ± 0.97 µM; in data set [2] (MIA PaCa-2, 48 h), 3.88 ± 1.17 µM.

Usually IC50 stands for the concentration that gives 50% inhibition.
